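Each compound was tested at five concentrations against cells in 96-well plates for 48 hours. TGI: total growth inhibition.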
Columns and labels:
Experiment in all cases: NCI anticancer screen, dose series, 48 h
[1] = test system: KM20L2 colon
[2] = test system: M19-MEL melanoma
[3] = test system: DMS 114 small cell lung
[4] = test system: XF 498 CNS
[5] = test system: DLD-1 colon

SMILES | TGI [1] | TGI [2] | TGI [3] | TGI [4] | TGI [5]
OC1CCSc2ccccc21 (centres undefined) | > 100 µM | > 100 µM | > 100 µM | > 100 µM | > 100 µM
CC(C)C(=O)CC(c1ccc(Br)cc1)N1N=C(C(C)C)CC1c1ccc(Br)cc1 (centres undefined) | > 100 µM | > 100 µM | > 100 µM | 59 µM | –
